In patent publication US20240254089A1, “MODULATORS OF MAS-RELATED G-PROTEIN RECEPTOR X4 AND RELATED PRODUCTS AND METHODS” (ESCIENT PHARMACEUTICALS, INC., priority 2020, published 2024):

Each compound was assayed against T1, human MRGPR X4 (Homo sapiens, UniProt Q96LA9) (assay: MRGPR X4 antagonist activity, IP-One Gq HTRF assay in stably transfected HEK cells). Conditions: not given.
T1 construct: expressed in transfected cells
Assay type: cell-based
Description: HEK cells stably transfected to express human MIRGPR X4 were maintained in an incubator at 37° C. with 5% CO2 and grown in DMEM media with 10% fetal bovine serum (FBS) and […] each of sodium pyruvate, Glutamax, penicillin/streptomycin, and Geneticin. HEK cells stably transfected to express mouse MRGPR A1 were maintained in the same incubator and grown in DMEM media with 10% FBS, 1% each of sodium pyruvate, Glutamax, penicillin/streptomycin, Geneticin, and 2.2 mg/mL Hygromycin.
Cells were plated in a 384-well assay plate at 20,000 cells per well in 12 μL of Opti-MEM and kept in an incubator overnight. On the day of the assay, compounds solubilized at 10 mM in DMSO were added as a 10-point curve (10 uM final top concentration with 1:3 serial dilutions) using a Tecan D300E digital dispenser. Agonists were diluted in assay buffer (final concentrations of 5.7 mM Tris-HCl, 43 mM NaCl, 50 mM LiCl, pH=8) and 2 μL of the appropriate agonist are added to each well. Final concentrations of agonists were 10 μM bilirubin, 20 μM deoxycholic acid, or 100 μM conjugated bilirubin (obtained from Lee Biosolutions, catalog #910-12). Final concentrations of DMSO were kept consistent across the plate. Plates were incubated in the dark for 1 h at 37° C. and then for 30 minutes at room temperature. IP-1 standards and HTRF detection reagents were added according to the IP-One—Gq Kit purchased from Cisbio (part number 62IPAPEJ) and incubated in the dark for 1 h at room temperature. The plate was read on a Molecular Devices SpectraMax iD5 plate reader. The HTRF ratio was calculated from the raw data and graphed using GraphPad Prism to calculate an IC50 value for each compound.

T1 sequence (Q96LA9 whole entry): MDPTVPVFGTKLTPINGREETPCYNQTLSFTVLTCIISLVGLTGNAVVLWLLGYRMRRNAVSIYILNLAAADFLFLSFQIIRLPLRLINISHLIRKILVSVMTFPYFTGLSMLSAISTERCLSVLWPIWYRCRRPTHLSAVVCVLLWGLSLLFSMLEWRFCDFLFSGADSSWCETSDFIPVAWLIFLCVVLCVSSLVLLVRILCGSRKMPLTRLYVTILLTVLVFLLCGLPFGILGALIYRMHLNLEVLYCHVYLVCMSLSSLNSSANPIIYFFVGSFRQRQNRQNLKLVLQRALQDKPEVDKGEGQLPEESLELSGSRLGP

SMILES | IC50
O=C(NCCCc1ccncc1)c1nn(Cc2ccc(Cl)cc2)c2ccccc12 [Compound 355] | > 2500 nM
CC(c1ccc(Cl)cc1)n1nc(C(=O)NCCc2nnc3n2CCCCC3)c2ccccc21 (stereo not shown) [Compound 74] | 501 to 1000 nM
O=C(NCCc1nnc2ccccn12)c1nn(CCc2ccc(Cl)c(Cl)c2)c2ccccc12 [Compound 505] | 1000 to 2500 nM
O=C(NCCc1nnc2ccccn12)c1nn(CC(=O)C2CCCCC2)c2ccccc12 [Compound 469] | 1000 to 2500 nM
O=C(NCCc1nnc2ccccn12)c1nn(Cc2cccc3ccsc23)c2ccccc12 [Compound 548] | 501 to 1000 nM
CC1(c2cn(CCNC(=O)c3nn(Cc4ccc(Cl)cc4)c4ccccc34)nn2)COC1 [Compound 139] | 100 to 500 nM
O=C(NCCc1nnc2ccccn12)c1nn(Cc2ccc3sccc3c2)c2ccccc12 [Compound 495] | < 100 nM
Cc1ccc(Cn2nc(C(=O)NCCc3nnc4n3CCCCC4)c3c(F)cccc32)cc1 [Compound 30] | 100 to 500 nM
O=C(NCCc1ccccn1)c1cn(Cc2cccc(F)c2)c2ccccc12 [Compound 214] | 1000 to 2500 nM
Cc1ccc(Cn2nc(C(=O)NCCc3nnc4n3CCCCC4)c3c(C#N)cccc32)cc1 [Compound 26] | < 100 nM
O=C(NCc1ccc2nonc2c1)c1nn(Cc2ccc(Cl)cc2)c2ccccc12 [Compound 427] | > 2500 nM
O=C(NCCc1nnc2ccccn12)c1nn(Cc2cnc3ccccc3c2)c2ccccc12 [Compound 455] | 100 to 500 nM
Cc1ccc(Cn2cc(C(=O)NCc3ccccn3)c3ccccc32)cc1 [Compound 229] | > 2500 nM
Cn1nccc1Cn1nc(C(=O)NCCc2nnc3ccccn23)c2ccccc21 [Compound 515] | > 2500 nM
O=C(NCCc1c[nH]c2ccccc12)c1nn(Cc2ccc(OC(F)F)cc2)c2ccccc12 [Compound 71] | 501 to 1000 nM
Cc1ccc(Cn2cc(C(=O)NCCc3ccc(Cl)c(F)c3)c3ccccc32)cc1 [Compound 196] | 501 to 1000 nM
O=C(NCCc1nnc2ccccn12)c1nn(Cc2cc3c(cc2Cl)OCO3)c2ccc(F)cc12 [Compound 536] | < 100 nM
O=C(NCCc1cccnc1)c1cn(Cc2cccc(OC(F)(F)F)c2)c2ccccc12 [Compound 186] | 501 to 1000 nM
COc1ccc(Cn2cc(C(=O)NCCc3ccc(Cl)c(F)c3)c3ccccc32)cc1 [Compound 218] | 1000 to 2500 nM
O=C(NCCc1nnc2ccccn12)c1nn(Cc2ccc(Cl)cc2)c2ccc(F)cc12 [Compound 2] | < 100 nM
Cc1cc(Cl)ccc1Cn1nc(C(=O)NCCc2cccnc2)c2ccccc21 [Compound 37] | 100 to 500 nM
CC(=O)Nc1ccc(CNC(=O)c2nn(Cc3ccc(Cl)cc3)c3ccccc23)cc1 [Compound 374] | > 2500 nM

SMILES | IC50
Cc1ccc(CNC(=O)c2nn(Cc3ccc(Cl)cc3)c3ccccc23)nn1 [Compound 334] | 501 to 1000 nM
N#Cc1ccc2c(c1)c(C(=O)NCCc1nnc3ccccn13)nn2Cc1ccc(Cl)cc1 [Compound 551] | < 100 nM
N#Cc1cccc(Cn2nc(C(=O)NCCc3nnc4ccccn34)c3ccccc32)c1 [Compound 446] | 1000 to 2500 nM
O=C(NCCc1ccccn1)c1cn(Cc2ccc(OC(F)F)cc2)c2ccccc12 [Compound 167] | 100 to 500 nM
O=C(NCCc1nnc2ccccn12)c1nn(Cc2nc(C(F)(F)F)no2)c2ccccc12 [Compound 513] | > 2500 nM
O=C(NCCc1ccccc1OC(F)(F)F)c1cn(Cc2ccc(Cl)cc2)c2ccccc12 [Compound 194] | 501 to 1000 nM
O=C(NCCc1ccc(O)cc1)c1nn(Cc2ccc(Cl)cc2)c2ccccc12 [Compound 40] | 100 to 500 nM
O=C(NCCN1CCOCC1)c1nn(Cc2ccc(Cl)cc2)c2ccccc12 [Compound 351] | > 2500 nM
Cc1ccc(Cn2nc(C(=O)NCCc3noc(C4CC4)n3)c3ccccc32)cc1 [Compound 83] | 501 to 1000 nM
CC(c1ccc(Cl)cc1)n1nc(C(=O)NCCc2nc3c(s2)CCCC3)c2ccccc21 (stereo not shown) [Compound 118] | 1000 to 2500 nM
O=C(NCCc1coc2ccccc12)c1nn(Cc2ccc(Cl)cc2)c2ccccc12 [Compound 356] | 501 to 1000 nM
O=C(O)c1nn(Cc2ccc(Cl)cc2)c2cccc(F)c12 [Compound 327] | > 2500 nM
O=C(O)c1nn(Cc2ccc(Cl)cc2)c2cc(F)ccc12 [Compound 326] | > 2500 nM
CN1CCN(CCCn2nc(C(=O)NCCc3nnc4ccccn34)c3ccccc32)CC1 [Compound 444] | > 2500 nM
Cc1ccc(Cn2nc(C(=O)NCCc3cccnc3)c3cc(Cl)ccc32)cc1 [Compound 27] | < 100 nM
Cn1ccc(CNC(=O)c2nn(Cc3ccc(Cl)cc3)c3ccccc23)cc1=O [Compound 392] | 1000 to 2500 nM
O=C(NCCc1nnc2ccccn12)c1nn(CC2CCC(F)(F)CC2)c2ccccc12 [Compound 489] | 501 to 1000 nM
O=C(NCCc1nnc2ccccn12)c1nn(Cc2ccc(OC(F)F)cc2)c2ccccc12 [Compound 463] | < 100 nM
O=C(NCCc1nnc2ccccn12)c1nn(Cc2nc3ccc(C(F)(F)F)cc3[nH]2)c2ccccc12 [Compound 522] | 501 to 1000 nM
Cc1ccc(C(=O)Cn2nc(C(=O)NCCc3nnc4ccccn34)c3ccccc32)c(C)c1 [Compound 483] | 501 to 1000 nM
O=C(NCCc1ccncn1)c1nn(Cc2ccc(Cl)cc2)c2ccccc12 [Compound 121] | 1000 to 2500 nM
CC(C)c1noc(Cn2nc(C(=O)NCCc3nnc4ccccn34)c3ccccc32)n1 [Compound 437] | 100 to 500 nM

SMILES | IC50
Cc1ccc(Cn2nc(C(=O)NCCc3ncon3)c3ccccc32)cc1 [Compound 126] | > 2500 nM
O=C(NCCn1nnc2ccccc21)c1nn(Cc2ccc(Cl)cc2)c2ccc(F)cc12 [Compound 533] | < 100 nM
O=C(NCCc1ccccn1)c1nn(Cc2ccc(Cl)cc2)c2ccccc12 [Compound 23] | < 100 nM
O=C(NCCc1cnccn1)c1cn(Cc2ccc(Cl)cc2)c2ccccc12 [Compound 171] | 100 to 500 nM
O=C(NCCc1nnc2ccccn12)c1nn(Cc2ccc3ccccc3c2)c2ccccc12 [Compound 432] | < 100 nM
O=C(NCCc1nnc2n1CCCCC2)c1nn(Cc2cccc(F)c2)c2ccccc12 [Compound 58] | 100 to 500 nM
Cc1ccc(Cn2nc(C(=O)NCCc3nc(C)c(C)s3)c3ccccc32)cc1 [Compound 53] | 100 to 500 nM
O=C(NCCc1nnc2ccccn12)c1nn(Cc2cccc3c2OCO3)c2ccccc12 [Compound 433] | 501 to 1000 nM
Cc1cccc(Cn2cc(C(=O)NCCc3ccc(Cl)c(F)c3)c3ccccc32)c1 [Compound 222] | 1000 to 2500 nM
Cc1ccc(CCNC(=O)c2cn(Cc3cccc(F)c3)c3ccccc23)cn1 [Compound 202] | 1000 to 2500 nM
Cc1cccn2cc(CNC(=O)c3nn(Cc4ccc(Cl)cc4)c4ccccc34)nc12 [Compound 421] | 501 to 1000 nM
Cc1ccc2c(C(=O)NCCc3nnc4ccccn34)nn(Cc3ccc(Cl)cc3)c2c1 [Compound 549] | 100 to 500 nM
COc1ccc2c(c1)c(C(=O)NCCc1nnc3ccccn13)nn2Cc1ccc(Cl)cc1 [Compound 543] | 100 to 500 nM
CC(Cc1ccccn1)NC(=O)c1nn(Cc2ccc(Cl)cc2)c2ccccc12 (stereo not shown) [Compound 127] | > 2500 nM
O=C(NCCCn1ccnc1)c1nn(Cc2ccc(Cl)cc2)c2ccccc12 [Compound 345] | > 2500 nM
O=C(NCCc1nnc2ccccn12)c1nn(CCc2ccc(C(F)(F)F)cc2)c2ccccc12 [Compound 441] | 1000 to 2500 nM
O=C(NCCc1nnc2n1CCCCC2)c1nn(Cc2ccc(C(F)(F)F)cc2)c2ccccc12 [Compound 5] | < 100 nM
N=C(N)NCCCCNC(=O)c1nn(Cc2ccc(Cl)cc2)c2ccccc12 [Compound 346] | 1000 to 2500 nM
O=C(NCc1cccc2[nH]ncc12)c1nn(Cc2ccc(Cl)cc2)c2ccccc12 [Compound 387] | > 2500 nM
O=C(NCCc1nnc2ccccn12)c1nn(Cc2ccc3sccc3c2)c2ccc(F)cc12 [Compound 538] | < 100 nM
COc1ccc(Cn2nc(C(=O)NCCc3nnc4ccccn34)c3ccccc32)nc1 [Compound 448] | > 2500 nM
O=C(NCCc1nnc2ccccn12)c1nn(Cc2ccc(Cl)cc2)c2c(Br)cccc12 [Compound 541] | < 100 nM

Same assay, conditions: versus 20 μM deoxycholic acid agonist; HEK cells expressing human MRGPR X4; read-out: MRGPRX4 Antagonist Activity

SMILES | IC50
Cc1ccc(NC(=O)CS(=O)(=O)c2cn(Cc3ccc(Cl)cc3)c3ccccc23)cc1 [Compound 247] | 1000 to 2500 nM
Cc1cccc(S(=O)(=O)NC(=O)c2nn(Cc3ccc(OC(F)F)cc3)c3ccccc23)c1F [Compound 278] | 1000 to 2500 nM
O=C(CS(=O)(=O)c1cn(Cc2ccc(Cl)cc2)c2ccccc12)Nc1ccc(F)cc1 [Compound 245] | 501 to 1000 nM
O=C(NCCn1cc(C2CCNCC2)nn1)c1nn(Cc2ccc(Cl)cc2)c2ccccc12 [Compound 146] | > 2500 nM
Cc1cc(S(=O)(=O)NC(=O)c2nn(Cc3ccc(C(F)(F)F)cc3Cl)c3ccccc23)ccc1C#N [Compound 263] | 501 to 1000 nM
O=C(Cn1nc(C(=O)NCCc2nnc3ccccn23)c2ccccc21)c1ccc(Cl)c(Cl)c1 [Compound 482] | < 100 nM
Cc1c(Cl)cccc1S(=O)(=O)NC(=O)c1nn(Cc2cccc(F)c2)c2ccccc12 [Compound 307] | > 2500 nM
